Results as given in patent US20060128762A1, “Medicinal composition and method for treating malignant tumor and utilization thereof” (D.Western Therapeutics Institute, priority 2002, published 2006).

What was measured:
[1] = test system: Murine Monocytic Leukemia P388; experiment: Antitumor effect on P388 murine monocytic leukemia transplanted into mouse (survival); assay type: in vivo; parameters: MST (median survival time): unit not given here; details: for MST (median survival time) / Survival number on day 50 / T/C (%): N = 6; for survival rate on day 5: administered alone
Method: Monocytic leukemia cell line P388 was purchased from Japanese Foundation for Cancer Research, Cancer Chemotherapy Center. The cryopreserved tumor was transplanted intraperitoneally into DBA/2 mouse (Japan SLC, Inc.). When the abdominal bloating was observed, ascites was removed and subjected to the test.
(§1) Compound 2 was weighed and ground down in an agate motor. It was then suspended slowly in the motor by adding 0.5% aqueous methylcellulose solution (M.C.) step by step to obtain 10 mg/ml suspension. The suspension was further diluted with M.C. to obtain a normal concentration and stored at 4° C. CDDP was dissolved and diluted with physiological saline. Immediately after preparation, the CDDP solution was subjected to test.
Male 4-week-old DBA/2 mice (n=10, 2 mice for the present test) and male 4-week-old CDF1 mice (DBA/2×BALB/c) (n=156) were purchased from Japan SLC, Inc., and used six animals per group. Animals were kept in a chamber maintained at room temperature of 21 to 25° C. and humidity of 45-65% with a given lighting time intervals (light period: 7:00 to 19:00; dark period: 19:00 to 7:00) and allowed to access freely to feed (F-2, Funabashi Nojo) and tap water. The animals purchased were used in the test after subjecting to taming and quarantine for 1 week.
The cryopreserved P388 cell lines were transplanted intraperitoneally into DBA/2 mouse. When the abdominal bloating was observed, ascites containing cancer cells were removed. The ascites was diluted with phosphate-buffered physiological saline (PBS, pH7.4) until the cell concentration became 5×10^6 cells/ml. The resultant solution (0.2 ml) was transplanted intraperitoneally into CDF1 mouse (1×10^6 cells/mouse). The drug was administered to mouse (0.1 ml/10 g body weight) on and after the next day of transplantation.
Compound 2 was administered orally and CDDP intraperitoneally. Animals of control group were untreated because of diversity of administration route and complexity of administration schedule.
The administration was started on the next day (day 1) of transplantation of tumor according to the protocol shown in Table 1, i.e., day 1; day 2; or day 1 and 2.

[2] = Stability of the suspension in 0.5% aqueous methylcellulose solution; assay type: physicochemical; details: suspension in 0.5% aqueous methylcellulose solution (M.C.), in a cold place
Method: as §1, with “test. It is assured that the suspension of Compound 2 in M.C. is homogeneous and stable for 14 days in a cold place.” for “test.”

[3] = Compound 2 25 mg/kg p.o on day 1
[4] = Compound 2 25 mg/kg p.o on day 2
[5] = Compound 2 50 mg/kg p.o on day 1
[6] = Compound 2 50 mg/kg p.o on day 2
[7] = Compound 2 100 mg/kg p.o on day 1
[8] = Compound 2 100 mg/kg p.o on day 2

SMILES: N.N.[Cl][Pt][Cl] [CDDP, cis-platinum (II) diamine chloride, reference compound]
- MST (median survival time) ([1]; CDDP 2.5 mg/kg i.p on day 1): 14.5
- Survival number on day 50 ([1]; CDDP 2.5 mg/kg i.p on day 1): 0
- T/C (%) ([1]; CDDP 2.5 mg/kg i.p on day 1): 145%
- MST (median survival time) ([1]; CDDP 2.5 mg/kg i.p on day 2): 15.5
- Survival number on day 50 ([1]; CDDP 2.5 mg/kg i.p on day 2): 0
- T/C (%) ([1]; CDDP 2.5 mg/kg i.p on day 2): 155%
- MST (median survival time) ([1]; CDDP 5 mg/kg i.p on day 1): 17
- Survival number on day 50 ([1]; CDDP 5 mg/kg i.p on day 1): 0
- T/C (%) ([1]; CDDP 5 mg/kg i.p on day 1): 170%
- MST (median survival time) ([1]; CDDP 5 mg/kg i.p on day 2): 17
- Survival number on day 50 ([1]; CDDP 5 mg/kg i.p on day 2): 0
- T/C (%) ([1]; CDDP 5 mg/kg i.p on day 2): 170%
- MST (median survival time) ([1]; CDDP 10 mg/kg i.p on day 1): 17
- Survival number on day 50 ([1]; CDDP 10 mg/kg i.p on day 1): 0
- T/C (%) ([1]; CDDP 10 mg/kg i.p on day 1): 170%
- MST (median survival time) ([1]; CDDP 10 mg/kg i.p on day 2): 17
- Survival number on day 50 ([1]; CDDP 10 mg/kg i.p on day 2): 0
- T/C (%) ([1]; CDDP 10 mg/kg i.p on day 2): 170%
- survival rate on day 5 [1]: not observed

SMILES: COc1ccc(S(=O)(=O)N(C(C)=O)c2ccccc2/C=C/c2cc[n+]([O-])cc2)cc1 [Compound 2, (E)-4-[2-[2-[N-acetyl-N-[(p-methoxyphenyl)sulfonyl]-amino]phenyl]ethenyl]pyridine 1-oxide]
- MST (median survival time) [1, 3]: 12.5
- Survival number on day 50 [1, 3]: 0
- T/C (%) [1, 3]: 125%
- MST (median survival time) [1, 4]: 13
- Survival number on day 50 [1, 4]: 0
- T/C (%) [1, 4]: 130%
- MST (median survival time) [1, 5]: 13
- Survival number on day 50 [1, 5]: 0
- T/C (%) [1, 5]: 130%
- MST (median survival time) [1, 6]: 13
- Survival number on day 50 [1, 6]: 0
- T/C (%) [1, 6]: 130%
- MST (median survival time) [1, 7]: 16.5
- Survival number on day 50 [1, 7]: 0
- T/C (%) [1, 7]: 165%
- MST (median survival time) [1, 8]: 15
- Survival number on day 50 [1, 8]: 0
- T/C (%) [1, 8]: 150%
- survival rate on day 5 [1]: not observed
- time for which the suspension in M.C. is homogeneous and stable [2]: 14 days
